Source: USRE35224E (The Board of Trustees of the Leland Stanford Junior …, priority 1993, dated 1996)
Entries after “also recorded” stand apart in the source; their conditions may differ.

Key:
natural suppressor cells [1] = biological target: T1, natural suppressor cells (Mus musculus, UniProt P97292); experiment: Effects of histamine derivatives on cAMP accumulation in natural suppressor (NS) cells; format: cell-based, mouse (BALB/c); settings: for Relative potency: NS cells, histamine = 1.0; for Activity / potency on NS cells (in words): cAMP accumulation, H2 activity
T1 construct: cAMP accumulation
Text: NS cells were obtained and cultured as follows: four-to six-month old BALB/c mice were anesthetized with pentobarbital and all major lymphoid organs, including all major lymph nodes, the spleen, and the thymus, were irradiated as described by Slavin et al., Science (1976) 193:1252. The skull, lungs, and hind legs were shielded with lead. The mice were given 200 rad per day, 5 times per week, to a total dose of 3400 rad. Irradiation was delivered from a single 250 kV (15A) source (Philips Medical Systems, Inc., Shelton, CT). The mice were killed between 5 and 15 days after completion of the TLI. Spleens were removed aseptically and single cell suspensions were prepared by gently pressing the spleen fragments through a nylon fiber mesh (Tetko, Inc., Elmsford, NY). These spleen cells were fed daily with tissue culture medium containing RPMI 1640, 10% FCS, 2 mM glutamine, 10% CAS and 5×10^-5 M 2-mercaptoethanol and were later cloned by limiting dilutior, The clones were maintained in RPMI 1640 medium with 10% PCS and 10% CAS.
NS cells were centrifuged and resuspended at b 1×10^6 /ml in PBS and incubated at 37° C. for 10 min with 10 mM IBMX at a final concentration at 20 μM. Alternatively the cells were resuspended in 5 mM HEPES and 1 mM MgSO4 and after five minutes were disrupted in a Dounce homogenizer. Broken cells were centrifuged at 20,000 g […] for thirty minutes and supernatant was discarded. The pellet was resuspended in Tris (pH 7.5), 5 mM HEPES and 1 mM MgSO4 and incubated with IBMX.
Cold TCA (100%) was added to a final concentration of 8% and the tubes were stored in ice. Samples were extracted 3 times with 3 volumes of ether. The ether was evaporated at 40° C. in a water bath for approximately 45 min. Acetylation of both experimental samples and cAMP standards were performed by addition of 10 μl of a mixture of triethylamine and acetic anhydride (2:1). […] The radio-immunoassay was performed as reported previously by Khan et al., J. Clin. Invest. (1985) 75:1578.

natural suppressor cells [2] = experiment: Mixed leukocyte reaction (MLR) suppressor assay; format: cell-based, mouse (BALB/c, C57 BL/6)
Procedure: Responder (BALB/c) and stimulator (C57 BL/6) spleen cells (5×10^5each) were incubated with graded numbers of NS cells in 0.3 ml/well in 96-well flat bottomed microculture plates (Costar, Data Packaging, Cambridge, MA). The culture medium was supplemented with 100 U/ml penicillin, 100 ug/ml of streptomycin (both GIBCO, Grand Island, NY), and 10=pooled human serum (VSP human serum, Biocell Laboratories, Carson CA). Co-cultured cells and stimulator cells were given 3300 rad before incubation. Cultures were maintained at 37° C. in 5% CO2 for 5 or 6 days. Eighteen hr before termination, 1 μCi of ^3 H!-thymidine (specific activity […]) (New England Nuclear, Boston, MA) was added to each culture. Cells were harvested as described above. The data were expressed as the arithmetic mean of triplicate cultures. Suppression was calculated as follows: percent suppression=1-(CPM with co-cultured cells)/(CPM without co-cultured cells)×100. […] To block the effects of agonists, […] cimetidine was used as an H2 antagonist and 10^-6 M mepyramine was used as an H1 antagonist.
CO-cultured and stimulator cells were given 3300 rad in vitro just prior to incubation. […] See, Khan et al., J. Immunol. (1985) 134:4100. […] To determine the role of H1 and H2 receptors in the modification of NS cell function, the incubation with compound 10 was carried out in the presence of either cimetidine (10^-5 M) or mepyramine (10^-6 M) for four hours at 37° C. The cells were then washed extensively and later added to co-cultures with responder and stimulator cells. […] Similar experiments were carried out with each of the indicated agonists (Table 5).

natural suppressor cells [3] = biological target: T1, natural suppressor cells; experiment: Blocking histamine effects in natural suppressor cells (H2 antagonism); format: cell-based, mouse (BALB/c); settings: for Blockade of histamine mediated accumulation of cAMP: NS cells
Procedure: This assay was carried out in the same fashion as already described for the derivatives except that ED-90 concentration of the test compound was chosen. Cimetidine was added at the same time in concentrations ranging from 10^-4 to 10^-8 M. Alternatively, 10^-6 M cimetidine was added to 10^-3 -10^-8 M concentration of agonists.

[4] = biological target: T2, guinea pig myocardial adenylate cyclase (Cavia porcellus, UniProt P47747); experiment: Guinea pig myocardial adenylate cyclase assay; format: biochemical; settings: for Activity on guinea pig myocardium (in words): adenylate cyclase
T2 construct: histamine-stimulated adenylate cyclase with GPP(NH)P
Procedure: Male, partly albino, guinea pigs (600 g average weight) were killed by a blow to the head. The hearts were excised and immediately immersed in ice cold oxygenated Tyrode's solution. Both ventricles were dissected free and placed in 250 mM sucrose, 5 mM Tris, 1 mM EDTA, pH 7.45. The tissue was minced with a screen, and was then homogenized with 3 consecutive 5 sec bursts of a Polytron (Brinkman Instruments, Inc., Westbury, NY) at a setting of 11. The homogenate was then centrifuged at 1085×g for 20 min. The pellet was resuspended and recentrifuged twice. The final suspension was filtered through four layers of gauze. Adenylate cyclase was assayed by the method of Salomon et al., Anal. Biochem. (1974) 58:541 as modified by Bristow et al., Mol Pharmacol. (1982) 21:671. Enzyme protein (75-250 μg) was added to a reaction mixture that consisted of 0.1 mM Mg ATP, 0.5 mM MgCl2, 10 mM phosphocreatine, 14.5 μg of creatine kinase (1381 U/mg), 100 mM
The final reaction volume before addition of α-^32 P!ATP was 225 μl. Reaction tubes were stored in cryogenic racks (Kryorack, Isolab, Inc. Akron, OH) at 0° C.
The reaction mixture was pre-warmed in a shaking water bath at 30° C. for 5 min after which 25 μl ([…]) of α-^32 P!ATP (250-500 Ci/mM) was added to label the ATP pool. The assay time was 20 min, the time needed for measurable stimulation of adenylate cyclase. The ^32 P reaction was stopped by the addition of 750 μl of 1% sodium dodecysulfate. ^32 P-labelled cyclic AMP was then isolated by the dual Dowex-alumina column method of Salomon et al., supra. α-^32 P!ATP (New England Nuclear Corporation, Boston, MA) that gave reagent blanks of 50 cpm was purified on Dowex columns as described by Salomon et al., supra.

lymphoid cells = experiment: Effect of beta adrenergic blockade on cAMP accumulation in lymphoid cells; format: cell-based; settings: 6×10^-6 M propranolol
natural suppressor cells [5] = settings: literature, Khan et al. 1985; listed as histamine; cited from earlier work

T1 sequence (P97292 whole entry): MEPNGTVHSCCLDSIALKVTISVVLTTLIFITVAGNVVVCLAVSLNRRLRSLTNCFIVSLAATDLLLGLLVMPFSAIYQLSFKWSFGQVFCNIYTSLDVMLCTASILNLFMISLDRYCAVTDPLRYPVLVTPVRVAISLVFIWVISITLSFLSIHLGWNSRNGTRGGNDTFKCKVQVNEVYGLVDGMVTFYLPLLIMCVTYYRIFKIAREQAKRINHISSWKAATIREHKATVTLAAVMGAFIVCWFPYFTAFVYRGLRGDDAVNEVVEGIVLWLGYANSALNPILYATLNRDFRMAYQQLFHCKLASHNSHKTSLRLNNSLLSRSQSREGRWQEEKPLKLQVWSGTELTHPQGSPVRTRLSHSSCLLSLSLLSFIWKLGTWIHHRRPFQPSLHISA
T2 sequence (P47747 whole entry): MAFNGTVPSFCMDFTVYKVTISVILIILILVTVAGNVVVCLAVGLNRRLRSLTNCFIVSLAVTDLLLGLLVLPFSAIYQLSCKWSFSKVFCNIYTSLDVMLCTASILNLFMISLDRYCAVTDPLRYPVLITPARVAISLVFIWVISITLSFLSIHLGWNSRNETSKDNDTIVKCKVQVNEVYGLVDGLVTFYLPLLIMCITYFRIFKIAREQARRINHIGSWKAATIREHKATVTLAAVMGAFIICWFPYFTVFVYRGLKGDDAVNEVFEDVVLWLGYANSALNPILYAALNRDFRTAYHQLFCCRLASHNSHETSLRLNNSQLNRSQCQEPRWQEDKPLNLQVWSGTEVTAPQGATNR

| Relative potency (natural suppressor cells [1]) | Activity on guinea pig myocardium (in words) [4] | Structure (SMILES) | Activity / potency on NS cells (in words) (natural suppressor cells [1]) | H1 activity in MLR (in words) (natural suppressor cells [2]) | Blockade of histamine mediated accumulation of cAMP (natural suppressor cells [3]) | other results |
| --- | --- | --- | --- | --- | --- | --- |
| Inactive | completely inactive | CCCCCC(=O)NCCc1c[nH]cn1 [Compound 3, N-Hexamido-4-2'-aminoethyl!imidazole] | impotent as H2 receptor agonists on NS cells | no H1 activity | failed to block histamine mediated accumulation of cAMP | Activity / potency on NS cells (in words) (natural suppressor cells [1]; listed as compound 3): inactive; also recorded: Neither an aliphatic amide derivative of histamine (compound 3) nor the dipeptide conjugate of histamine (compound 12) altered intracellular cAMP; also recorded: nor did they stimulate intracellular accumulation of cAMP |
| – | – | CC(C)NCC(O)COc1cccc2ccccc12 (stereo not shown) [Propranolol] | – | – | – | Effect on histamine-induced intracellular accumulation of cAMP (lymphoid cells): had no effect on histamine-induced intracel accumulation of cAMP; Blockade of the effects of isoproterenol (lymphoid cells; 10^-5 M isoproterenol): completely blocked the effects of 10^-5 M isoproterenol |
| Inactive | – | CC(CCCCC(=O)Nc1ccccc1C(F)(F)F)NCCc1c[nH]cn1 (stereo not shown) [Compound 11] | impotent as H2 receptor agonists on NS cells | nullified both detectable H1 and H2 activity | failed to block histamine mediated accumulation of cAMP | Activity / potency on NS cells (in words) (natural suppressor cells [1]; listed as compound 11): nullified both detectable H1 and H2 activity |
| – | – | CN/C(=N/CCSCc1nc[nH]c1C)NC#N [Cimetidine, reference compound] | – | – | – | Effect of antagonist on derivative-enhanced suppression in MLR (natural suppressor cells [2]; with compound 10, cimetidine 10^-5 M or mepyramine 10^-6 M, four hours at 37° C): did not alter the derivative-enhanced suppression; Effect on basal activity (natural suppressor cells [3]; 10^-6 M cimetidine): did not lower the basal activity; Antagonism by cimetidine (H2 antagonist) of cAMP accumulation (natural suppressor cells [3]; cimetidine 10^-5 M, compounds 6-8 at 10^-4 M, 9 at 10^-7 M): competitively blocked the actions of compounds 6-8 (used at 10^-4 M) and 9 (used at 10^-7 M); Ki (natural suppressor cells [3]; lymphoid cells, read-out: Inhibition constant): 110 to 430 nM |
| – | – | NCCc1c[nH]cn1 [Histamine, 2-(4'-imidazolinyl)ethylamino] | – | – | – | Effect on suppressive ability of NS cells (natural suppressor cells [5]): augmented the suppressive capacity of NS cells via H1 receptors; Stimulation of adenylate cyclase over base levels ([4]; histamine 10^-5 M): threefold stimulation of adenylate cyclase over base levels |
| Inactive | stimulated guinea pig myocardium | CCCCNC(=O)CCCCC(C)NCCc1c[nH]cn1 (stereo not shown) [Compound 13] | impotent as H2 receptor agonists on NS cells | no H1 activity | failed to block histamine mediated accumulation of cAMP | Activity / potency on NS cells (in words) (natural suppressor cells [1]; listed as compound 13): inactive on NS cells; also recorded: nor did they stimulate intracellular accumulation of cAMP |

| Structure (SMILES) | Relative potency (natural suppressor cells [1]) | Activity on guinea pig myocardium (in words) [4] | Activity / potency on NS cells (in words) (natural suppressor cells [1]) | H1 activity in MLR (in words) (natural suppressor cells [2]) | Blockade of histamine mediated accumulation of cAMP (natural suppressor cells [3]) | other results |
| --- | --- | --- | --- | --- | --- | --- |
| CCCCCC(C)NCCc1c[nH]cn1 (stereo not shown) [Compound 2] | Inactive | completely inactive | impotent as H2 receptor agonists on NS cells | no H1 activity | failed to block histamine mediated accumulation of cAMP | Activity / potency on NS cells (in words) (natural suppressor cells [1]; listed as compound 2): inactive; also recorded: nor did they stimulate intracellular accumulation of cAMP |
